Test results: patent US20250115571A1, “OXOPIPERAZINE DERIVATIVES” (Inthera Bioscience AG, priority 2017, published 2025)

What was measured:
CT-26 cells = assay: Cell-derived syngeneic mouse model for colorectal carcinoma combined with anti-PD1 antibodies; assay type: in vivo; settings: ten mice per group
Description: The cells were inoculated subcutaneously into the left flank of 60 mice. […] Body weights were measured daily until treatment start, then twice weekly. Tumor burden was assessed twice weekly by caliper measurement. The study was terminated four weeks post first dosing.

[1] = test system: androgen receptor (AR)-target genes KLK3, TMPRSS2, SLC45A3 in LNCaP cells; assay: P300/CBP-androgen receptor target gene expression regulation in prostate cancer cells (RT-qPCR); assay type: cell-based, human; settings: 300 nM added concomitantly to DHT (100 nM, 4 hours)
Description: LNCaP prostate cancer cells (CLS GmbH) were seeded at a density of 15′000 cells/cm^2 in 48-well cell culture-treated plates and cultured for 72 hours in RPMI1640 medium (Sigma-Aldrich) supplemented with Glutamax I (ThermoFisher-Gibco), “Antibiotic and Antimycotic Solution” (Sigma-Aldrich) and 1% fetal calf serum (Sigma-Aldrich). AR-driven gene expression response was induced by addition of the androgen signaling agonist dihydrotestosterone (Selleck Chemicals, Houston, TX, USA) to a concentration of 100 nanomol/Lt for 4 hours. Cells were treated with Compound 258 during dihydrotestosterone induction. Culture medium was carefully removed, cells were washed 1× with Phosphate-Buffered Saline (Sigma-Aldrich) and lysed using the SingleShot Cell Lysis Kit (Bio-Rad, Hercules, CA, USA). Gene expression of well-known AR-responsive genes prostate-specific antigen (KLK3, ThermoFisher), transmembrane serine protease 2 (TMPRSS2, ThermoFisher) and prostein (SLC45A3, ThermoFisher) was assessed by quantitative PCR after reverse transcription of the LNCaP RNA with the Applied Biosystem High-Capacity cDNA Reverse Transcription Kit (ThermoFisher). Gene expression was normalized against four reference genes (RPLP0, GUSB, GAPDH and ACTB, all probe detection systems were from Bio-Rad).

[2] = test system: Vascular Endothelial Growth Factor A (VEGF); assay: Tumor VEGF protein (ELISA) in MKN45 gastric cancer cell-derived xenograft; assay type: in vivo, mouse; settings: approximately 3 weeks of treatment with 3 mg/kg or 6 mg/kg, effect less evident than in HCT-116
Description: Mice from groups 1, 2, 4 and 5 of the HCT-116 colorectal cancer model (TABLE 12, EXAMPLE 324) and MKN45 gastric cancer model (TABLE 14, EXAMPLE 325) were used to analyze tumor Vascular Endothelial Growth Factor A (VEGF) protein expression at the end of the experiment. Tumors homogenates were prepared using a 2× Lysis Buffer (RayBiotech Life, Norcross, GA, USA) according to manufacturer's instructions. VEGF was quantified in 50 micrograms tumor by ELISA (Human VEGF Quantikine ELISA Kit, R&D Systems) according to manufacturer's instructions.

## CC(C)C[C@@H]1NCCN([C@@H](CC(C)C)C(=O)N2CCC3(C[C@@H]2C)OCC(CN2CCCC2)CO3)C1=O (stereo partly drawn) [Compound 258, (3S)-1-[(2S)-4-methyl-1-oxo-1-[(3s,6s,8S)-8-methyl-3-(pyrrolidin-1-ylmethyl)-1,5-dioxa-9-azaspiro[5.5]undec-an-9-yl]pentan-2-yl]-3-(2-methylpropyl)piper-azin-2-one (^≠), isomer Z]
CT-26 cells; day 21, 1 mg/kg p.o. QD + Anti-PD1 10 mg/kg i.p. BIW
  mice alive: 10
CT-26 cells; day 21, 1 mg/kg p.o. QD alone
  mice alive: 10
CT-26 cells; day 21, 3 mg/kg p.o. QD + Anti-PD1 10 mg/kg i.p. BIW
  mice alive: 10
CT-26 cells; day 21, 3 mg/kg p.o. QD alone
  mice alive: 10
CT-26 cells; day 23, 1 mg/kg p.o. QD + Anti-PD1 10 mg/kg i.p. BIW
  mice alive: 10
CT-26 cells; day 23, 1 mg/kg p.o. QD alone
  mice alive: 10
CT-26 cells; day 23, 3 mg/kg p.o. QD + Anti-PD1 10 mg/kg i.p. BIW
  mice alive: 10
CT-26 cells; day 23, 3 mg/kg p.o. QD alone
  mice alive: 8
CT-26 cells; day 25, 1 mg/kg p.o. QD + Anti-PD1 10 mg/kg i.p. BIW
  mice alive: 10
CT-26 cells; day 25, 1 mg/kg p.o. QD alone
  mice alive: 5
CT-26 cells; day 25, 3 mg/kg p.o. QD + Anti-PD1 10 mg/kg i.p. BIW
  mice alive: 10
CT-26 cells; day 25, 3 mg/kg p.o. QD alone
  mice alive: 6
CT-26 cells; day 28, 1 mg/kg p.o. QD + Anti-PD1 10 mg/kg i.p. BIW
  mice alive: 7
CT-26 cells; day 28, 1 mg/kg p.o. QD alone
  mice alive: 2
CT-26 cells; day 28, 3 mg/kg p.o. QD + Anti-PD1 10 mg/kg i.p. BIW
  mice alive: 9
CT-26 cells; day 28, 3 mg/kg p.o. QD alone
  mice alive: 2
CT-26 cells; day 30, 1 mg/kg p.o. QD + Anti-PD1 10 mg/kg i.p. BIW
  mice alive: 6
CT-26 cells; day 30, 1 mg/kg p.o. QD alone
  mice alive: 1
CT-26 cells; day 30, 3 mg/kg p.o. QD + Anti-PD1 10 mg/kg i.p. BIW
  mice alive: 8
CT-26 cells; day 30, 3 mg/kg p.o. QD alone
  mice alive: 0
CT-26 cells; day 32, 1 mg/kg p.o. QD + Anti-PD1 10 mg/kg i.p. BIW
  mice alive: 4
CT-26 cells; day 32, 1 mg/kg p.o. QD alone
  mice alive: 0
CT-26 cells; day 32, 3 mg/kg p.o. QD + Anti-PD1 10 mg/kg i.p. BIW
  mice alive: 4
CT-26 cells; day 32, 3 mg/kg p.o. QD alone
  mice alive: 0
CT-26 cells; day 34, 1 mg/kg p.o. QD + Anti-PD1 10 mg/kg i.p. BIW
  mice alive: 4
CT-26 cells; day 34, 1 mg/kg p.o. QD alone
  mice alive: 0
CT-26 cells; day 34, 3 mg/kg p.o. QD + Anti-PD1 10 mg/kg i.p. BIW
  mice alive: 4
CT-26 cells; day 34, 3 mg/kg p.o. QD alone
  mice alive: 0
CT-26 cells; day 36, 1 mg/kg p.o. QD + Anti-PD1 10 mg/kg i.p. BIW
  mice alive: 4(*)
CT-26 cells; day 36, 1 mg/kg p.o. QD alone
  mice alive: 0
CT-26 cells; day 36, 3 mg/kg p.o. QD + Anti-PD1 10 mg/kg i.p. BIW
  mice alive: 4(*)
CT-26 cells; day 36, 3 mg/kg p.o. QD alone
  mice alive: 0
[1]
  repression of PSA (KLK3) gene expression stimulation: complete repression
  repression of SLC45A3 gene expression stimulation: 80%
  repression of TMPRSS2 gene expression stimulation: 85%
[2]
  tumor VEGF protein levels: significantly reduced
